Series [1] deals with CEA antigen binding to anti-CEA antibody Col-1. Briefly: Mimicry test, competitive ELISA on coated CEA antigen with Col-1. More on the design: species or system human. As to conditions: phages at 5*10^10, 1*10^10, 1*10^9 particles per ml, simultaneously with Col-1. As to the method: FIG. 3: Mimicry analysis in ELISA competition assay. Coated CEA antigen is detected by Col-1 antibody, rendering a maximal signal of 1,4. Simultaneous incubation was done with titrated phage clones (white columns highest, grey: medium, black: least concentration of phage clones). Bound Col-1 was detected with anti-mouse IgG-peroxidase labelled. X-axis: clone names, Y-axis: colour intensity at OD450-630 nm.
The CEA antigen (human purified; Sigma, St. Louis) was used for coating ELISA plates. After blocking and washing, mimotopes phages were added to wells in three concentrations (5*10^10, 1*10^10, 1*10^9 particles per ml) simultaneously with antibody Col-1. In a final step, bound Col-1 antibody was detected by a peroxidase-labeled anti-mouse antibody. TMB substrate (BD Biosciences, San Diego, Calif.) was added for development of the colour and signal intensity measured in ELISA reader at OD450-630. […] This assay evidenced that selected mimotopes are mimics of the Col-1 epitope on CEA antigen.

For series [2], the system named is HT29 CEA overexpressing cells. Briefly: Antibody-dependent cytotoxicity (ADCC) assay, CytoTox 96. As to conditions: pooled fifth immune sera of immunized mice diluted 1:50; naive BALB/c spleen cells as effector cells. It counts as cell-based. As to the method:
(§1) FIG. 7: ADCC reaction in vitro. Effects of the antibody-dependent cytotoxicity. The reaction was determined against the CEA positive cell line HT 29 and against the CEA negative cell line SW 480. The CEA-MAP serum was used 1:50 (black columns; 1). The mice immunized with a control-MAP (2) or alum alone (3) and the Col-1 antibody (4) were used as negative controls.
(§2) Complement-dependent cytotoxicity (CDC) and antibody-dependent-cytotoxicity (ADCC) effectivity of the antibodies induced by mimotope vaccination were measured with the CytoTox 96 Nonradioactive Cytotoxicity assay (Promega, Madison, Wis.). HT29 CEA overexpressing cells were used as positive target cells. SW480 CEA-negative colon cancer cells served as a negative target control cell line. The number of both target cells was optimized to 2×10^5 cells/ml. For CDC reactions (FIG. 6), pooled fifth immune sera were diluted 1:50 (1) or 1:100 (2) in CytoTox 96 assay medium. Additionally, the antibody Col-1 (3), an IgG2a (4) and an IgM (5) antibody (Sigma, Vienna, Austria) served as negative controls. Spleen cells of naïve BALB/c mice were prepared by mashing the spleen and lysing the erythrocytes with ammonium chloride and used as effector cells. […] All assay procedures and readouts were done as described in the manufacturers description. […] The results of the cytotoxicity was calculated as follows: […]

For series [3], the system named is HT29 CEA overexpressing cells. Briefly: Complement-dependent cytotoxicity (CDC) assay, CytoTox 96. It counts as cell-based. As to conditions: highest value corrected to 100%. As to the method:
(§3) FIG. 6: CDC reaction in vitro. Effects of the mimotope induced antibodies in mediating complement-dependent cytotoxicity. The reaction was determined against the CEA positive cell line HT 29 and against the CEA negative cell line SW 480. Mouse immune sera in different concentrations were tested on the two cell lines. Sera from CEA-MAM immunized mice were used 1:50 (black columns; 1) and 1:100 (white column; 2). The antibody Col-1 (3), the isotype control antibodies IgG2a (4) and IgM (5) were used as negative controls.
as §2, with “controls.” for “controls. Spleen cells of naïve BALB/c mice were prepared by mashing the spleen and lysing the erythrocytes with ammonium chloride and used as effector cells.”

Series [4] deals with SW480 CEA-negative colon cancer cells. Briefly: Cytotoxicity assay on CEA-negative control cell line. It is filed as cell-based. As to conditions: sera of immunized mice. The protocol:
as §3, §1
Complement-dependent cytotoxicity (CDC) and antibody-dependent-cytotoxicity (ADCC) effectivity of the antibodies induced by mimotope vaccination were measured with the CytoTox 96 Nonradioactive Cytotoxicity assay (Promega, Madison, Wis.). HT29 CEA overexpressing cells were used as positive target cells. […] All assay procedures and readouts were done as described in the manufacturers description. […] The results of the cytotoxicity was calculated as follows: […]

The target of series [5] is CEA antigen (human purified; Sigma, St. Louis) (human) (UniProt P06731). Briefly: ELISA, CEA coated, bound Col-1 detected with anti-mouse IgG-peroxidase (FIG. 3).

Bridge positions count the residues as written; N and C are the ends. Ends that are not written are not given here.

Sequence of UniProt P06731 (P06731 35-685 limits assumed): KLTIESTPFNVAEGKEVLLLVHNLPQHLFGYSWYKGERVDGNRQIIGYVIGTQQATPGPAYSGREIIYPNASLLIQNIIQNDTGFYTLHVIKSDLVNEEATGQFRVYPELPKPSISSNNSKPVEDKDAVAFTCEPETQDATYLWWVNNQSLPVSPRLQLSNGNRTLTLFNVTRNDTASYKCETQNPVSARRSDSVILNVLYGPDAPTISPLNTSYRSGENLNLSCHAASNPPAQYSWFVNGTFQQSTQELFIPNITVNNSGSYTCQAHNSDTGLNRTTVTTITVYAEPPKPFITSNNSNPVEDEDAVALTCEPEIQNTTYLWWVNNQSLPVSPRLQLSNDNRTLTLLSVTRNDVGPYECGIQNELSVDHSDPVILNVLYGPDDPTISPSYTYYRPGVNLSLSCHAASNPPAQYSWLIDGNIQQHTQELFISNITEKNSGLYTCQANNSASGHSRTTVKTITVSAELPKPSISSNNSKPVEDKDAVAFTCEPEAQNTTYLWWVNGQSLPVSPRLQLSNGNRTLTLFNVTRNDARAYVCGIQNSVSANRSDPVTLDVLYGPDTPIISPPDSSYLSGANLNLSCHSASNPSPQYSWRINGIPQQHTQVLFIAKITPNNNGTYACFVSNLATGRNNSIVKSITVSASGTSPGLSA

As for “C-RLALGDAKKY-C (CRLALGDAKKYC; disulfide 1-12; not fully specified; printed as C-RLALGDAKKY-C) [COL4, CEA mimotope selected from phage library with antibody Col-1]”, the “competition of phage-displayed mimotope with CEA for binding to Col-1” value in series [1] is listed as “best candidate”.
`CC(C)C[C@H](NC(=O)CNC(=O)CNC(=O)[C@H](CCCNC(=N)N)NC(=O)[C@@H](N)CC(=O)O)C(=O)N[C@@H](Cc1c[nH]c2ccccc12)C(=O)N[C@@H](CCCCN)C(=O)N[C@H](C(=O)N1CCC[C@H]1C(=O)NCCCC[C@H](NC(=O)[C@@H]1CCCN1C(=O)[C@@H](NC(=O)[C@H](CCCCN)NC(=O)[C@H](Cc1c[nH]c2ccccc12)NC(=O)[C@H](CC(C)C)NC(=O)CNC(=O)CNC(=O)[C@H](CCCNC(=N)N)NC(=O)[C@@H](N)CC(=O)O)[C@@H](C)O)C(=O)NCCCC[C@H](NC(=O)[C@H](CCCCNC(=O)[C@@H]1CCCN1C(=O)[C@@H](NC(=O)[C@H](CCCCN)NC(=O)[C@H](Cc1c[nH]c2ccccc12)NC(=O)[C@H](CC(C)C)NC(=O)CNC(=O)CNC(=O)[C@H](CCCNC(=N)N)NC(=O)[C@@H](N)CC(=O)O)[C@@H](C)O)NC(=O)[C@@H]1CCCN1C(=O)[C@@H](NC(=O)[C@H](CCCCN)NC(=O)[C@H](Cc1c[nH]c2ccccc12)NC(=O)[C@H](CC(C)C)NC(=O)CNC(=O)CNC(=O)[C@H](CCCNC(=N)N)NC(=O)[C@@H](N)CC(=O)O)[C@@H](C)O)C(=O)NCC(=O)NCC(=O)N[C@@H](CSCC(=O)NCCCCCCNC(=O)CSC[C@H](NC(=O)CNC(=O)CNC(=O)[C@H](CCCCNC(=O)[C@H](CCCCNC(=O)[C@@H]1CCCN1C(=O)[C@@H](NC(=O)[C@H](CCCCN)NC(=O)[C@H](Cc1c[nH]c2ccccc12)NC(=O)[C@H](CC(C)C)NC(=O)CNC(=O)CNC(=O)[C@H](CCCNC(=N)N)NC(=O)[C@@H](N)CC(=O)O)[C@@H](C)O)NC(=O)[C@@H]1CCCN1C(=O)[C@@H](NC(=O)[C@H](CCCCN)NC(=O)[C@H](Cc1c[nH]c2ccccc12)NC(=O)[C@H](CC(C)C)NC(=O)CNC(=O)CNC(=O)[C@H](CCCNC(=N)N)NC(=O)[C@@H](N)CC(=O)O)[C@@H](C)O)NC(=O)[C@H](CCCCNC(=O)[C@@H]1CCCN1C(=O)[C@@H](NC(=O)[C@H](CCCCN)NC(=O)[C@H](Cc1c[nH]c2ccccc12)NC(=O)[C@H](CC(C)C)NC(=O)CNC(=O)CNC(=O)[C@H](CCCNC(=N)N)NC(=O)[C@@H](N)CC(=O)O)[C@@H](C)O)NC(=O)[C@@H]1CCCN1C(=O)[C@@H](NC(=O)[C@H](CCCCN)NC(=O)[C@H](Cc1c[nH]c2ccccc12)NC(=O)[C@H](CC(C)C)NC(=O)CNC(=O)CNC(=O)[C@H](CCCNC(=N)N)NC(=O)[C@@H](N)CC(=O)O)[C@@H](C)O)C(=O)O)C(=O)O)[C@@H](C)O` [CEA-mimotope MAP] showed an ADCC cytotoxicity in series [2] of 50%. For the same molecule, the CDC cytotoxicity is reported as 100% in series [3] (pooled fifth immune sera of immunized mice diluted 1:50) and 51% in series [3] (pooled fifth immune sera of immunized mice diluted 1:100). Moreover, the “cytotoxic reaction on CEA negative cells” value in series [4] was “no reaction”.

B1: monoclonal antibody Col-1 (Zymed Lab., San Francisco, Calif.) (antibody, from another filing, V domains shown)
VH: EVQLQQSGAELVRSGASVKMSCTASGFNIKDYYMHWVKQRPEQGLEWIGWIDPENGDTEYAPKFQGKATMTTDTSSNTAYLQLSSLTSEDTAVYYCNTRGLSTMITTRWFFDVWGAGTTVAVSS
VL: DIVLTQSPASLTVSLGLRATISCRASKSVSASGYSYMHWYQQRPGQPPKLLIYLASNLQSGVPARFSGSGSGTDFTLNIHPVEEEDAATYYCQHSRELPTFGGGTKLEIK
In turn, B1 displayed a maximal signal (OD450-630 nm) in series [5] of 1.4 OD450-630 nm.

These data come from US20090304725A1, “Vaccine and Antigen Mimotopes Against Cancerous Diseases Associated with the Carcinoembryonic Antigen CEA” (Medizinische Universitat Wien, priority 2006, published 2009).
